Data set [1] has as its system basophils.
Excerpt: Peripheral blood leukocytes are isolated from patients' whole blood samples and primed with Stimulation Buffer containing interleukin 3 (IL-3). […] During this activation intracellular compounds containing the transmembrane protein CD63 are fused to the cellular membrane and therefore exposed to the extracellular matrix.
A highly specific monoclonal antibody (mAb) recognizing the high affinity IgE binding receptor (FcεRI) is used as a positive control, leading to the activation of the basophils by mimicking the bridging event.
After stopping the reaction the Staining Reagent is added containing a mixture of monoclonal antibodies to human CD63 labeled with phycoerythrin (anti-CD63-PE) and to human IgE labeled with fluorescein isothiocyanate (anti-IgE-FITC). The remaining erythrocytes are removed by a lysing reaction and after blocking the reaction the cells are analyzed by flow cytometry.
Mix the anti-coagulated blood sample by inverting the venipuncture tube several times. Centrifuge the venipuncture tube for 5 minutes at 200×g. After the centrifugation step, two phases can be observed from top to the bottom of the tube: • i) plasma fraction containing the leukocytes • ii) erythrocyte fraction • Alternative procedure for cell separation: • Mix the anti-coagulated blood sample by inverting the venipuncture tube several times. • Let the samples sediment (erythrocytes) at room temperature for one hour. Collect the upper phase (plasma fraction containing the leukocytes) and continue with step 2. • If the erythrocytes sedimentation is not complete after one hour of incubation, the centrifugation step above is recommended. • 2. Collect the plasma fraction with the leukocytes on the top of the erythrocytes with a disposable plastic syringe or plastic pipette and transfer it into a fresh and pyrogen-free 5 ml polypropylene or polystyrene tube. • NOTE: Because of the low amount of basophils in the leukocyte fraction it is important to collect the entire plasma fraction. […] Centrifuge for 10 minutes at 500×g. Completely remove the plasma fraction on the top of the cell pellet with a pipette. • 4. Add 100 μl of Stimulation Buffer per ml of blood used at the beginning (i.e. for 5 ml blood sample used, the pellet has to be solved with 500 μl of Stimulation Buffer). Resuspend the leukocytes pellet carefully. • 5a. For each patient, label pyrogen-free polystyrene tubes suited for Flow Cytometry measurements (e.g., PB=patient background=negative control, PC=stimulation control with anti-FcεRI Ab, A1-1 for antigen 1 with dilution 1, A1-2 for allergen 1 with dilution 2, etc.) or use tissue culture grade microtiter plates. • 5b. Pipet 50 μl of Stimulation Buffer (background 0 negative control) into the PB tube of each patient. • 5c. Pipet 50 μl of Stimulation Control into the PC tube of each patient. • 5d. Pipet 50 μl of Allergen (=test substance) into the corresponding patient tubes. • 6. Pipet 50 μl of each patient's cell suspension into the corresponding tubes. • 7. Vortex gently, cover the tubes and incubate for 40±5 minutes at 37° C. in a water bath. • 8. Add 50 μl of cold Blocking Buffer to each tube. • 9. Add 20 μl of cold Staining Reagent to each tube. Vortex gently. • 10. Incubate for 30±5 minutes at 2-8° C. • 11. Vortex gently the sedimented cells, add 3.5 ml of pre-warmed (18-28° C.) Lysing Reagent to each tube and incubate for 5±1 minutes at 18-28° C. • 12. Stop the reaction with 1 ml of Blocking Buffer. • 13. Centrifuge for 5 minutes at 1000-1200×g. • 14. Decant or aspirate the supernatant and resuspend the cell pellet with 500 μl of Blocking Buffer. Vortex gently. • 15. Proceed to the analysis by Flow Cytometry within 2 hours.
Flow cytometric analysis can be performed on any flow cytometer containing a 488 nm argon laser (blue-green excitation light) and the corresponding software.
Another data set relates to basophilic cells. To be noted: for MFI-CCR3 shift (cytotoxic concentration): human. The text has this: In Protocol 1 anti-IgE-FITC is used as the basophil selection marker, whereas in Protocol 2 anti-CCR3-PE is used.
For data set [2], the system named is basophils. Briefly: Alternative use of FcεRI instead of IgE as basophil selection/activation marker (Example 7). To be noted: for MFI Activation Index (anti-FcεRI-AF647 and anti-IgE-AF647): Amoxicillin allergic patient. The format is cell-based, human.
Another data set deals with blood basophils. As to conditions: 21 normal blood donors. As for the experimental part: Therefore, we established two protocols, one with diluted whole blood, wherein the EDTA blood sample is diluted 1 in 4 with cellular incubation buffer (the Stimulation Buffer) and another with purified blood, wherein the basophils were transferred from its plasma matrix to a plasma-free matrix such as the cellular incubation buffer by centrifuging and washing the blood cells.

Where two headings read alike, the source gives them in different places.

Regarding `CC(C)Cc1ccc(C(C)C(=O)O)cc1` (stereo not shown) [Ibuprofen], the “combined MFI-IgE/CD63 Activation Index” value in the data set with basophils [1] (Patient 8) is reported as “positive results”. Further, in the data set on basophils [1] (Patient 9), the CD63 expression result is given as “clearcut reaction” and the “combined MFI-IgE/CD63 Activation Index” value is listed as “clearcut reaction”.
Turning to `O=C(O)Cc1ccccc1Nc1c(Cl)cccc1Cl` [Diclofenac], in the data set with basophils [1] (Patient 9), the CD63 expression result was “clearcut reaction” and the “combined MFI-IgE/CD63 Activation Index” value is on record as “clearcut reaction”.
As for `CC(=O)Oc1ccccc1C(=O)O` [Aspirin], the “MFI-CCR3 shift (cytotoxic concentration)” value in the data set on basophilic cells (5 mg/ml) is “clearcut downregulation of MFI-CCR3”. The “combined MFI-IgE/CD63 Activation Index” value in the data set on basophils [1] (Patient 8) was “positive results”. Moreover, in the data set on basophils [1] (Patient 9), the CD63 expression result is recorded as “clearcut reaction” and the “combined MFI-IgE/CD63 Activation Index” value was “clearcut reaction”.
For the compound `CSCC[C@H](NC=O)C(=O)N[C@@H](CC(C)C)C(=O)N[C@@H](Cc1ccccc1)C(=O)O` [fMLP, N-formyl-L-methionyl-L-leucyl-L-phenylalanine], in the data set on basophils [2] (compared with anti-FcεRI mAb), the “stimulation yield as alternative positive control” value is reported as “lower stimulation yields than anti-FcεRI mAb”.
For `COc1ccc2cc([C@H](C)C(=O)O)ccc2c1` [Naproxen], the “MFI-CCR3 shift (cytotoxic concentration)” value with basophilic cells (1 mg/ml) and in the data set on basophilic cells (5 mg/ml) was “clearcut downregulation of MFI-CCR3” each time. Moreover, the “unspecific stimulatory effects on basophils” value in the data set with blood basophils (1 mg/ml, washed blood cells) is “unspecific stimulatory effects”. Further, in the data set on blood basophils (5 mg/ml, all blood preparation methods), the “cytotoxic effects on blood basophils” value is reported as “cytotoxic effects”.
Consider `CC1(C)S[C@@H]2[C@H](NC(=O)[C@H](N)c3ccc(O)cc3)C(=O)N2[C@H]1C(=O)O` [Amoxicillin], for which the “MFI Activation Index (anti-FcεRI-AF647 and anti-IgE-AF647)” value in the data set with basophils [2] (0.04 mg/ml (C3)) is “negative”; in the data set with basophils [2] (0.2 mg/ml (C2)) it was “intermediate”; in the data set with basophils [2] (1 mg/ml (C1)), “strong activation”. In the data set on basophilic cells (2 mg/ml, CCR3 selection marker), the “CCR3 positive cells after stimulation” value is on record as “can still be easily identified”. In addition, the “IgE positive basophilic cells after stimulation” value in the data set with basophilic cells (2 mg/ml, IgE selection marker) is listed as “disappearing”. In the data set on basophils [1] (Patient 4 (control subject)), the “result of all methods tested (CD63 expression, combined Activation Index, spIgE, skin test)” value was “negative result”. Besides, in the data set on basophils [1] (Patient 5), the “combined MFI-IgE/CD63 Activation Index” value was “positive result”. Also, the CD63 expression entry in the data set with basophils [1] (Patient 5, cutoff 5% plus SI≧2) is given as “negative”.

Source of the values: patent US8563258B2, “Allergy test based on flow cytometric analysis” (Buhlmann Laboratories AG, priority 2007, dated 2013).
